Laboratory results as given in patent US20250134874A1, “PHARMACEUTICAL FORMULATIONS COMPRISING 3-({[(4R)-7-{METHYL[4-(PROPAN-2-YL)PHENYL]AMINO}-3,4-DIHYDRO-2H-1-BENZOPYRAN-4-YL]METHYL}AMINO)PYRIDINE-4-CARBOXYLIC ACID” (TACHYON THERAPEUTICS, INC., priority 2021, published 2025).

Test system: 301 cancer cell lines from different tumor types (OncoPanel; HD Biosciences)
Experiment: 2D cell viability inhibition assay (CellTiter-Glo) in cancer cell line panel
Type: cell-based
Design: key to AUC: AUC as fraction of the no-inhibition area (dose range × 0–100 % of control)
Conditions: for Emax: in %
Method: In a larger screening study, compound 1 was evaluated across a broad cancer cell line panel (OncoPanel; HD Biosciences) composed of 301 cancer cell lines from different tumor types.
2D cell viability inhibition assays were performed in multiwell plates seeded with cells from the panel. After seeding, the plates were cultured overnight in a humidified incubator at 37° C. to promote adherence. Assays were initiated in individual wells by adding either DMSO as a vehicle control, growth media as a blank, or serially diluted compound 1 (10 μM to 0.0005 μM with 1:3 serial dilution). Cultures were incubated for 168 hours after which the number of viable cells in each test well was assessed using the CellTiter-Glo® Luminescent Cell Viability Assay. Luminescence readouts were performed using an EnVision® Multilabel Reader and the compound 1 readouts were normalized to the DMSO control readouts, expressed as a percent of the control. Outliers were flagged out by visual inspection. Percent of control was plotted against the corresponding compound 1 concentration and the absolute IC50 value was determined using four-parameter logistic non-linear regression as the concentration where inhibition was 50% of the control. For maximum inhibition <50%, the absolute IC50 was reported as >10. In addition to EC50 and IC50, AUC was determined and was normalized to the area corresponding to theoretical no-inhibition (the rectangular area defined by the compound dose range and 0 to 100 in y). Emax was recorded as the minimum in y with the compound dose range. For those cell lines where Emax>40, EC50 was manually set to 10 μM. A hierarchical clustering algorithm based on Euclidean distance between the standardized input values and “Ward.D” method as implemented in R hclust function was used to visualize the compound 1 cellular potency data. The sensitive/moderate/resistant calls for each cell line was determined by visually inspecting the resulting clustering dendrogram. All the analyses were done in R Core Team.

CC(C)c1ccc(N(C)c2ccc3c(c2)OCC[C@H]3CNc2cnccc2C(=O)O)cc1 [Compound 1, 3-({[(4R)-7-{methyl[4-(propan-2-yl)phenyl]amino}-3,4-dihydro-2H-1-benzopyran-4-yl]methyl}amino)pyridine-4-carboxylic acid]
AUC (NCIH23 cell line): 0.6227
AUC (NCIH69 cell line): 0.2802
Emax (NCIH69 cell line): 1.271
AUC (NCIH82 cell line): 0.2502
AUC (NCIH209 cell line): 0.1869
Emax (NCIH209 cell line): 8.61
AUC (NCIH358 cell line): 0.4332
Emax (NCIH358 cell line): 22.66
AUC (NCIH441, lung, adenocarcinoma, 168 hours): 0.7804
AUC (NCIH446 cell line): 0.5837
AUC (NCIH460 cell line): 0.3714
Emax (NCIH460 cell line): 7.705
AUC (NCIH508 cell line): 0.3378
Emax (NCIH508 cell line): 3.207
AUC (NCIH520 cell line): 0.3237
AUC (NCIH522 cell line): 0.4447
Emax (NCIH522 cell line): 15.14
AUC (NCIH524 cell line): 0.3617
Emax (NCIH524 cell line): 12.7766
AUC (NCIH596, lung, mixed adenosquamous carcinoma, 168 hours): 0.8151
AUC (NCIH647 cell line): 0.4942
Emax (NCIH647 cell line): 28.29
AUC (NCIH661 cell line): 0.3608
Emax (NCIH661 cell line): 9.075
AUC (NCIH716 cell line): 0.3799
Emax (NCIH716 cell line): 12.75
AUC (NCIH929 cell line): 0.5285
AUC (NCIH1048 cell line): 0.1479
AUC (NCIH1092 cell line): 0.479
Emax (NCIH1092 cell line): 26.4
AUC (NCIH1155 cell line): 0.07571
AUC (NCIH1299 cell line): 0.3508
Emax (NCIH1299 cell line): 12.65
AUC (NCIH1355 cell line): 0.5594
AUC (NCIH1395, lung, adenocarcinoma, 168 hours): 0.8542
AUC (NCIH1435, lung, non-small cell carcinoma, 168 hours): 0.7612
AUC (NCIH1436 cell line): 0.4953
Emax (NCIH1436 cell line): 34.4
AUC (NCIH1437 cell line): 0.4082
Emax (NCIH1437 cell line): 14.97
AUC (NCIH1563, lung, adenocarcinoma, 168 hours): 0.9652
AUC (NCIH1573, lung, adenocarcinoma, 168 hours): 0.7482
AUC (NCIH1618 cell line): 0.02266
EC50 (NCIH1618 cell line): 0.508 nM
IC50 (NCIH1618 cell line): < 0.5 nM
AUC (NCIH1623 cell line): 0.522
AUC (NCIH1650, lung, bronchioloalveolar adenocarcinoma, 168 hours): 0.8746
AUC (NCIH1666 cell line): 0.2983
AUC (NCIH1694 cell line): 0.3214
Emax (NCIH1694 cell line): 21.59
AUC (NCIH1703 cell line): 0.4204
Emax (NCIH1703 cell line): 21.7324
AUC (NCIH1734 cell line): 0.6734
AUC (NCIH1755, lung, adenocarcinoma, 168 hours): 1.29
AUC (NCIH1793 cell line): 0.4916
Emax (NCIH1793 cell line): 27.48
AUC (NCIH1836 cell line): 0.3332
AUC (NCIH1838, lung, non-small cell carcinoma, 168 hours): 0.7858
AUC (NCIH1930 cell line): 0.5402
AUC (NCIH1944 cell line): 0.5809
Emax (NCIH1944 cell line): 37.59
AUC (NCIH1975 cell line): 0.529
AUC (NCIH2009, lung, adenocarcinoma, 168 hours): 0.7914
AUC (NCIH2023 cell line): 0.2884
AUC (NCIH2081 cell line): 0.3049
AUC (NCIH2087 cell line): 0.3822
AUC (NCIH2122 cell line): 0.5019
AUC (NCIH2171 cell line): 0.7416
AUC (NCIH2172 cell line): 0.6812
AUC (NCIH2228 cell line): 0.6864
AUC (NCIH2286 cell line): 0.2917
AUC (NCIH2291 cell line): 0.3822
Emax (NCIH2291 cell line): 13.48
AUC (NCIH2347 cell line): 0.5778
Emax (NCIH2347 cell line): 40.29
AUC (NCIN87 cell line): 0.3132
AUC (NIHOVCAR3, ovary, NS, 168 hours): 0.7771
AUC (NMCG1, central nervous system, NS, 168 hours): 0.7013
AUC (NOMO1 cell line): 0.3293
AUC (NUGC3 cell line): 0.3824
Emax (NUGC3 cell line): 16
AUC (NUGC4 cell line): 0.4642
Emax (NUGC4 cell line): 24.53
EC50 (OCUM1, OCUM1 cell line): ≥ 10000 nM
IC50 (OCUM1, OCUM1 cell line): 7.79 nM
AUC (OCUM1 cell line): 0.5324
Emax (OCUM1 cell line): 32.42
AUC (ONS76, central nervous system, NS, 168 hours): 0.7336
AUC (OSRC2 cell line): 0.6658
AUC (OVISE cell line): 0.5405
IC50 (OVISE cell line): 24 nM
AUC (P31FUJ cell line): 0.286
AUC (PANC1 cell line): 0.5543
AUC (PANC0213 cell line): 0.5829
EC50 (PANC0213 cell line): 21.5 nM
IC50 (PANC0213 cell line): 35.8 nM
AUC (PC3 cell line): 0.502
Emax (PC3 cell line): 26.1466
AUC (PECAPJ34CLONEC12 cell line): 0.311
EC50 (PECAPJ34CLONEC12 cell line): 3.81 nM
IC50 (PECAPJ34CLONEC12 cell line): 3.97 nM
AUC (PF382 cell line): 0.2761
AUC (PLCPRF5 cell line): 0.5107
AUC (RCM1 cell line): 0.6711
AUC (RD cell line): 0.4703
Emax (RD cell line): 27.42
AUC (REH cell line): 0.0957
AUC (RERFLCMS cell line): 0.6415
EC50 (RERFLCMS cell line): 23.5 nM
IC50 (RERFLCMS cell line): 65.9 nM
AUC (RKO cell line): 0.3827
Emax (RKO cell line): 11.05
AUC (RL cell line): 0.2366
